# Like-named read-outs stand apart in the source and are kept apart here.
# Key:
# Assay type in all cases: cell-based
# Edg1/3(i3ct) [1] = target: T1, Edg1/3(i3ct) (Homo sapiens, UniProt P21453, DEL241-247/F237N/K239N/K250R/K256R/L235V/L252M/N315S/R231S/R234K/R238H/T230S/T236A); assay: Dose response of intracellular calcium mobilization (FLIPR) in HTC4 cells expressing chimeric Edg1/3(i3ct)
# T1 construct: DNA encoding the full length Edg 1/3(i3ct) chimera was then produced in a tertiary PCR reaction; expressed in transfected cells
# Edg 1 = Edg 1 (Homo sapiens, UniProt P21453); assay: Intracellular calcium mobilization (FLIPR) in HTC4 cells expressing Edg 1; details: 100 nM S1P, FIG. 2
# Description: (§1) Media from GP-293 cells was collected and filtered through a […] PES syringe filter to remove cell debris. Polybrene (hexadimethrine bromide, Sigma) was added to each virus laden supernatant to a final concentration of […]. After removing the culture medium from the target cells, the virus-laden medium was used to overlay the host cell line HTC4 (rat hepatoma cell line; from Ed Goetzl, UCSF). Following infection, cells were incubated for 18–24 hours. Cells resistant to antibiotic (Geneticin, G418, […], Sigma) were selected. Clonal populations were selected from the pooled stable cells using a standard limiting dilution technique (adapted from “Antibodies: A Laboratory Manual”; 1988, Harlow, E. and Lane, D., Cold Spring Harbor Laboratory, New York).
# (§2) HTC4 rat hepatoma cells stably transfected with Edg 1, Edg 1/3(ct), Edg1/3(i3ct) or Edg1/3(i2i3ct) according to Example 6.7 were plated on 384-well plates and loaded with a calcium dye loading kit (Molecular Devices, Sunnyvale, Calif.) for 1 hour at room temperature. Cells were then placed on FLIPR^384 (Molecular Devices, Sunnyvale, Calif.) and excited by an argon laser at 488 nm. In this assay, fluorescence changes over basal levels indicate an increase in intracellular calcium. In FIG. 2, basal fluorescence is at 0 (arbitrary units). […]
# Edg1/3(i3ct) [2] = target: T1, Edg1/3(i3ct); assay: Intracellular calcium mobilization (FLIPR) in HTC4 cells expressing Edg1/3(i3ct), single concentration; details: 100 nM S1P, FIG. 2
# Description: as §1, §2
# Edg1/3(i2i3ct) = target: T2, Edg1/3(i2i3ct) (Homo sapiens, UniProt P21453, DEL241-247/F158H/F237N/G154A/H152Y/I144L/K150R/K239N/K250R/K256R/L147I/L151P/L235V/L252M/N153D/N156K/N157R/N315S/R231S/R234K/R238H/S155N/T230S/T236A/Y143H); assay: Intracellular calcium mobilization (FLIPR) in HTC4 cells expressing Edg1/3(i2i3ct); details: 100 nM S1P, FIG. 2
# T2 construct: DNA encoding the full length Edg 1/3(i2i3ct) chimera was then produced in a tertiary PCR reaction; expressed in transfected cells
# Description: as §1, §2
# Edg 1/3(ct) = target: T3, Edg 1/3(ct) (Homo sapiens, UniProt P21453, N315S); assay: Intracellular calcium mobilization (FLIPR) in HTC4 cells expressing Edg 1/3(ct); details: 100 nM S1P, FIG. 4
# T3 construct: DNA encoding the full length Edg 1/3(ct) chimera was produced in a secondary PCR reaction; expressed in transfected cells
# Description: as §1, §2
# Edg5/3(i3ct) = target: T4, Edg5/3(i3ct) (Homo sapiens, UniProt O95136, A221R/A225S/D222K/F113S/H220S/INS224NHNN/K233R/L229M/M223V/P226E/Q227R/R217K/T228S); assay: Intracellular calcium mobilization (FLIPR) in HTC4 cells expressing Edg5/3(i3ct); details: 100 nM S1P, FIG. 5
# T4 construct: DNA encoding the full length Edg 5/3(i3ct) chimera was then produced in a tertiary PCR reaction; expressed in transfected cells
# Description: as §1
# (§3) HTC4 rat hepatoma cells stably transfected with Edg5/3(i3ct) and Edg8/4(ct) according to Example 6.7 were plated on 384-well plates and loaded with a calcium dye loading kit (Molecular Devices, Sunnyvale, Calif.) for 1 hour at room temperature. Cells were then placed on FLIPR^384 (Molecular Devices, Sunnyvale, Calif.) and excited by an argon laser at 488 nm. In this assay, fluorescence changes over basal levels indicate an increase in intracellular calcium. […] The cells were contacted with 100 nM of the Edg 5 and Edg 8 agonist sphingosine-1-phosphate (S1P) 50 seconds after the start of the assay.
# Edg8/4(ct) = target: T5, Edg8/4(ct) (Homo sapiens, UniProt Q9H228); assay: Intracellular calcium mobilization (FLIPR) in HTC4 cells expressing Edg8/4(ct); details: 100 nM S1P, FIG. 5
# T5 construct: DNA encoding the full length Edg 8/4(ct) chimera was produced in a secondary PCR reaction; expressed in transfected cells
# Description: as §1, §3
# T1 sequence (P21453 with tags, fused parts or gaps with the stated changes): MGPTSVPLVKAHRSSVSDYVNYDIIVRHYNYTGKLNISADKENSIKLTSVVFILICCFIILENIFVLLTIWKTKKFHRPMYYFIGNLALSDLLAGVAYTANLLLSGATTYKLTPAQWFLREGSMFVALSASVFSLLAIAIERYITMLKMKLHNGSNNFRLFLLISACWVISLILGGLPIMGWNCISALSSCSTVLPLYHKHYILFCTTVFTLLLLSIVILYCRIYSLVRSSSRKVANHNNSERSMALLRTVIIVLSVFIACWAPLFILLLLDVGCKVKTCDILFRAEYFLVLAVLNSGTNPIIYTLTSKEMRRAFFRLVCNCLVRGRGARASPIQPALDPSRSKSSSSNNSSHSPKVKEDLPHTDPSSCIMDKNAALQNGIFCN
# T2 sequence (P21453 with tags, fused parts or gaps with the stated changes): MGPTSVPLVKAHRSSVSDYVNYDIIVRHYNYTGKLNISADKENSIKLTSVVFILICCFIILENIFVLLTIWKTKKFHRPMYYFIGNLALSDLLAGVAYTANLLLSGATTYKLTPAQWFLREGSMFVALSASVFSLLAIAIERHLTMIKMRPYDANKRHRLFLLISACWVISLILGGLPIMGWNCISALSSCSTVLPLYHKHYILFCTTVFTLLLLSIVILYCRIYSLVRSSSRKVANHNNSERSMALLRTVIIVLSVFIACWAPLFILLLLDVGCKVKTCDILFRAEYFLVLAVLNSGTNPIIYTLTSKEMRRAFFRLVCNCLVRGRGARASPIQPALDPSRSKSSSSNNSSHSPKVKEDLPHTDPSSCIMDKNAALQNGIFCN
# T3 sequence (P21453 with tags, fused parts or gaps N315S): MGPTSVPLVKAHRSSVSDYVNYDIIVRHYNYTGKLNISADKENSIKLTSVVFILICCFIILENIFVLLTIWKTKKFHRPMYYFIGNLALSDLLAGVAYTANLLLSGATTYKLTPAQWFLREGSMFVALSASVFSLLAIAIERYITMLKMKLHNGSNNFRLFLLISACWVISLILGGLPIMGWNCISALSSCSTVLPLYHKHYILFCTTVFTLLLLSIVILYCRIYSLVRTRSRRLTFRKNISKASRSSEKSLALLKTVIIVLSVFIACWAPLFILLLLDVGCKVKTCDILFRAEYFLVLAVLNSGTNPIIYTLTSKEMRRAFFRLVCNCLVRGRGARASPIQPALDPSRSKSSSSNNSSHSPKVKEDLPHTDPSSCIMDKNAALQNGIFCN
# Edg 1, sequence (P21453 whole entry): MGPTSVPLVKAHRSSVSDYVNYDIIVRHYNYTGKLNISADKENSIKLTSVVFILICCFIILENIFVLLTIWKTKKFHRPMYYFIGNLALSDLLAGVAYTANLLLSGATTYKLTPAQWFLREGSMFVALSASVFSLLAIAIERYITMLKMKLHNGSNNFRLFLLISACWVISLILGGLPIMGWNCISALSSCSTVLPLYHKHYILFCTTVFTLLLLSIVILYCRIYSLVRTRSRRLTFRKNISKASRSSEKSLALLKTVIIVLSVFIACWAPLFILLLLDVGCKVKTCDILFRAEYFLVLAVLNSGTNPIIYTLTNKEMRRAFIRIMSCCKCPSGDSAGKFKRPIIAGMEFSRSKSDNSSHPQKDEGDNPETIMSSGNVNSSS
# T4 sequence (O95136 with tags, fused parts or gaps with the stated changes): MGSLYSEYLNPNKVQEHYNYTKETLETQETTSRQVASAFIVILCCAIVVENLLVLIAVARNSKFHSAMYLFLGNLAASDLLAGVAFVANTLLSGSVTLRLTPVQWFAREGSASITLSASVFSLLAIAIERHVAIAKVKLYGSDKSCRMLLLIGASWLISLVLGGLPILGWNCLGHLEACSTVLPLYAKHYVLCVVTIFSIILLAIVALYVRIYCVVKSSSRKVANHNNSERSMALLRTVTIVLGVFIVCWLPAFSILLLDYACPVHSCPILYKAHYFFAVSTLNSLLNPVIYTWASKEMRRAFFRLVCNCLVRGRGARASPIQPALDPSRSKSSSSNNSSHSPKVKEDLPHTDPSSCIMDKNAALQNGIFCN
# T5 sequence (Q9H228 with tags, fused parts or gaps): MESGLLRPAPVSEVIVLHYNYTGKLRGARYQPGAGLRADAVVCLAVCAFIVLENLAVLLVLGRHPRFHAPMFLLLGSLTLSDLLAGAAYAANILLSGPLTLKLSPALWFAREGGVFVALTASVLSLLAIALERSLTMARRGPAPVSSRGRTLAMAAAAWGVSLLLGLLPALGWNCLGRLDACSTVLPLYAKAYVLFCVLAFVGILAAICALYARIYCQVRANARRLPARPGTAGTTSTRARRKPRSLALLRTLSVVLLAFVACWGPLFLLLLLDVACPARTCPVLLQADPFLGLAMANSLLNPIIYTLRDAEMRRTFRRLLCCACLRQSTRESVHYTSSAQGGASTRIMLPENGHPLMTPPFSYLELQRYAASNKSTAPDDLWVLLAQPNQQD
structure (smiles),measurement,setting,value
"CCCCCCCCCCCCCCC[C@@H](O)[C@@H](N)COP(=O)(O)O [dihydro S1P, dihydro sphingosine-1-phosphate]",EC50,"Edg1/3(i3ct) [1]; HTC4 rat hepatoma cells stably transfected with Edg1/3(i3ct), FIG. 3, read-out: EC50 of intracellular calcium mobilization",~10 nM
"CCCCCCCCCCCCC/C=C/[C@@H](O)[C@@H](N)COP(=O)(O)O [S1P, sphingosine-1-phosphate]",EC50,Edg1/3(i3ct) [1],~10 nM
same,change in intracellular calcium,Edg 1,no change in intracellular calcium
same,change in intracellular calcium,Edg1/3(i3ct) [2],significant change in intracellular calcium
same,change in intracellular calcium,Edg1/3(i2i3ct),significant change in intracellular calcium
same,intracellular calcium mobilization,Edg 1/3(ct),"functional, although not as robust as Edg1/3(i3ct) or Edg1/3(i2i3ct)"
same,intracellular calcium mobilization,Edg5/3(i3ct),mobilize intracellular calcium
same,intracellular calcium mobilization,Edg8/4(ct),mobilize intracellular calcium

# From patent US7063966B2, “Chimeric G protein coupled receptors” (SRI International, priority 2001, dated 2006)
